The source made the active and inactive calls. The calls are words filed in the database; no cut-off is given here.
Experiments:
[1] = Volume of distribution at steady state in Sprague-Dawley rat at 10 mg/kg, po measured upto 24 hrs by LC-MS/MS analysis; type: ADME, organism-based; conditions: in vivo
[2] = Clearance in Sprague-Dawley rat at 10 mg/kg, po measured upto 24 hrs by LC-MS/MS analysis; type: ADME, organism-based; conditions: in vivo
[3] = Growth inhibition of […] BaF3 cells harboring BCR abl mutant incubated for 3 days by MTT assay; type: functional; conditions: BaF3, 72 h; time 3 day
[4] = tested on: BHT-101; test: Growth inhibition of human BHT-101 cells incubated for 3 days by MTT assay; type: functional; conditions: BHT-101, 72 h, time 3 day
[5] = tested on: SGC-7901; test: Growth inhibition of human SGC-7901 cells incubated for 3 days by MTT assay; type: functional; conditions: SGC-7901, 72 h, time 3 day
[6] = tested on: SK-MEL-1; test: Growth inhibition of human SK-MEL-1 cells incubated for 3 days by MTT assay; type: functional; conditions: SK-MEL-1, 72 h, time 3 day
[7] = tested on: HepG2; test: Growth inhibition of human HepG2 cells incubated for 3 days by MTT assay; type: functional; conditions: HepG2, 72 h, time 3 day
[8] = tested on: BaF3; type: functional; conditions: Mus musculus, BaF3, 72 h; time 3 day
[9] = tested on: BaF3; test: Growth inhibition of mouse BaF3 cells harboring RET M918T mutant incubated for 3 days by MTT assay; type: functional; conditions: BaF3, 72 h, time 3 day
[10] = tested on: BaF3; test: Growth inhibition of mouse BaF3 cells harboring RET V804M mutant incubated for 3 days by MTT assay; type: functional; conditions: BaF3, 72 h, time 3 day
[11] = tested on: BaF3; test: Growth inhibition of mouse BaF3 cells over expressing wild type RET incubated for 3 days by MTT assay; type: functional; conditions: BaF3, 72 h, time 3 day
[12] = tested on: DU-145; test: Growth inhibition of human DU-145 cells incubated for 3 days by MTT assay; type: functional; conditions: DU-145, 72 h, time 3 day
[13] = Growth inhibition of human H4 cells incubated for 3 days by MTT assay; type: functional; conditions: H4, 72 h, time 3 day
[14] = Inhibition of colony formation in […] NIH3T3 cells at > 1 uM incubated for 10 days by crystal violet assay relative to control; type: functional; conditions: dose microM >1; time 10 day
[15] = molecular target: Aurora kinase B (Homo sapiens, UniProt Q96GD4); test: Inhibition of recombinant full length human Aurora B using AKRRRLSSLRA as substrate incubated for 40 mins in presence of [gamma-33ATP] by scintillation counting based radiometry assay
Sequence of Aurora kinase B (Q96GD4 whole entry): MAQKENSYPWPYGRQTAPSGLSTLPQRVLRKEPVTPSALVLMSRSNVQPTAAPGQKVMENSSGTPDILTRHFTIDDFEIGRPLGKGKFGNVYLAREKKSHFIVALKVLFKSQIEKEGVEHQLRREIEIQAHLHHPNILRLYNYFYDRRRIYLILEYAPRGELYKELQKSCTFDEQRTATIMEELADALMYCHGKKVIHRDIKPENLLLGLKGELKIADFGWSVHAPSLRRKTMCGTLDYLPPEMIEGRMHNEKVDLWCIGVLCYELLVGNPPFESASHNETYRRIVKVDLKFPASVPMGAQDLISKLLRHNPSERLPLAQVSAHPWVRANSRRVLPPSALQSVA

[16] = molecular target: Serine/threonine-protein kinase B-raf (Homo sapiens, UniProt P15056); test: Inhibition of recombinant full length human B-Raf (416 to end residues) using myelin basic protein substrate incubated for 40 mins in presence of [gamma-33ATP] by scintillation counting based radiometry assay
[17] = molecular target: Casein kinase I isoform delta (Homo sapiens, UniProt P48730); test: Inhibition of recombinant human CK1delta (1 to 294 residues) using KRRRALS(p)VASLPGL as substrate incubated for 40 mins in presence of [gamma-33ATP] by scintillation counting based radiometry assay
[18] = molecular target: Ephrin type-A receptor 7 (Homo sapiens, UniProt Q15375); test: Inhibition of recombinant human EphA7 (613 to 909 residues) using KTFCGTPEYLAPEVRREPRILSEEEQEMFRDFDYIADWC as substrate incubated for 40 mins in presence of [gamma-33ATP] by scintillation counting based radiometry assay
[19] = molecular target: Vascular endothelial growth factor receptor 3 (Homo sapiens, UniProt P35916); test: Inhibition of recombinant human FLT4 (800 to end residues) using GGEEEEYFELVKKKK as substrate incubated for 40 mins in presence of [gamma-33ATP] by scintillation counting based radiometry assay
[20] = molecular target: Interleukin-1 receptor-associated kinase 1 (Homo sapiens, UniProt P51617); test: Inhibition of human IRAK1 (194 to end residues) using myelin basic protein as substrate after 40 mins by [gamma-33ATP] radiometric assay
[21] = molecular target: Tyrosine-protein kinase Mer (Homo sapiens, UniProt Q12866); test: Inhibition of recombinant human MER (557 to 882 residues) using KKLNRTLSFAEPG as substrate incubated for 40 mins in presence of [gamma-33ATP by scintillation counting based radiometry assay
Sequence of Tyrosine-protein kinase Mer (Q12866 whole entry, the tested form may be a part): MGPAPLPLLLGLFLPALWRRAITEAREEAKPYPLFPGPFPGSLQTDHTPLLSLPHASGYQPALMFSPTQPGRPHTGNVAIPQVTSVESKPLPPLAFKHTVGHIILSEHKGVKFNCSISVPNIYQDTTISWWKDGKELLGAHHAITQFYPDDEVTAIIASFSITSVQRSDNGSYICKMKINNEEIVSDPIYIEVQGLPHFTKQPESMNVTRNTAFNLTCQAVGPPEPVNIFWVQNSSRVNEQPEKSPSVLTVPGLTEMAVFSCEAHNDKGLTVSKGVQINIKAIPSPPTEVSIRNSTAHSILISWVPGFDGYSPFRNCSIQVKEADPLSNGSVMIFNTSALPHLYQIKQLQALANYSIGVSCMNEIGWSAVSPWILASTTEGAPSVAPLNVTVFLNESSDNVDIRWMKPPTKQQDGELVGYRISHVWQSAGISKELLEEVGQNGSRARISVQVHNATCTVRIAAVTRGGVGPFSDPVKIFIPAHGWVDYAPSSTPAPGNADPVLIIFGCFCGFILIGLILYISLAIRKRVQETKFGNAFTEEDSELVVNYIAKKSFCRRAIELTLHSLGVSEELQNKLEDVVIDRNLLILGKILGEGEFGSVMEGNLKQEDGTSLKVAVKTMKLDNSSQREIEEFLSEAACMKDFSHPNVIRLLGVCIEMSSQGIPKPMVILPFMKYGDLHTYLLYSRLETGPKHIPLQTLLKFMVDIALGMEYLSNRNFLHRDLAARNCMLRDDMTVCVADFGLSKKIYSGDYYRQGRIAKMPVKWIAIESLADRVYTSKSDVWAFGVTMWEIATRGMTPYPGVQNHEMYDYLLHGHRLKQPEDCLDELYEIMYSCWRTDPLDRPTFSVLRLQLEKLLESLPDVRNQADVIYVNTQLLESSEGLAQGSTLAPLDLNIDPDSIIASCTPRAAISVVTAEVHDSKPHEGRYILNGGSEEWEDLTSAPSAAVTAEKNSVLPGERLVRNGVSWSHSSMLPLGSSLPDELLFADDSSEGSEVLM

[22] = molecular target: NT-3 growth factor receptor (Homo sapiens, UniProt Q16288); test: Inhibition of recombinant human TRKC (510 to end residues) using GEEPLYWSFPAKKK as substrate incubated for 40 mins in presence of [gamma33P]ATP by scintillation counting based radiometry assay
[23] = molecular target: Tyrosine-protein kinase receptor UFO (Homo sapiens, UniProt P30530); test: Inhibition of recombinant human Axl (473 to end residues) using KKSRGDYMTMQIG as substrate incubated for 40 mins in presence of [gamma-33ATP] by scintillation counting based radiometry assay
[24] = molecular target: Discoidin domain-containing receptor 2 (Homo sapiens, UniProt Q16832); test: Inhibition of recombinant human DDR2 (467 to end residues) using KKSRGDYMTMQIG as substrate incubated for 40 mins in presence of [gamma-33ATP] by scintillation counting based radiometry assay
Sequence of Discoidin domain-containing receptor 2 (Q16832 whole entry, the tested form may be a part): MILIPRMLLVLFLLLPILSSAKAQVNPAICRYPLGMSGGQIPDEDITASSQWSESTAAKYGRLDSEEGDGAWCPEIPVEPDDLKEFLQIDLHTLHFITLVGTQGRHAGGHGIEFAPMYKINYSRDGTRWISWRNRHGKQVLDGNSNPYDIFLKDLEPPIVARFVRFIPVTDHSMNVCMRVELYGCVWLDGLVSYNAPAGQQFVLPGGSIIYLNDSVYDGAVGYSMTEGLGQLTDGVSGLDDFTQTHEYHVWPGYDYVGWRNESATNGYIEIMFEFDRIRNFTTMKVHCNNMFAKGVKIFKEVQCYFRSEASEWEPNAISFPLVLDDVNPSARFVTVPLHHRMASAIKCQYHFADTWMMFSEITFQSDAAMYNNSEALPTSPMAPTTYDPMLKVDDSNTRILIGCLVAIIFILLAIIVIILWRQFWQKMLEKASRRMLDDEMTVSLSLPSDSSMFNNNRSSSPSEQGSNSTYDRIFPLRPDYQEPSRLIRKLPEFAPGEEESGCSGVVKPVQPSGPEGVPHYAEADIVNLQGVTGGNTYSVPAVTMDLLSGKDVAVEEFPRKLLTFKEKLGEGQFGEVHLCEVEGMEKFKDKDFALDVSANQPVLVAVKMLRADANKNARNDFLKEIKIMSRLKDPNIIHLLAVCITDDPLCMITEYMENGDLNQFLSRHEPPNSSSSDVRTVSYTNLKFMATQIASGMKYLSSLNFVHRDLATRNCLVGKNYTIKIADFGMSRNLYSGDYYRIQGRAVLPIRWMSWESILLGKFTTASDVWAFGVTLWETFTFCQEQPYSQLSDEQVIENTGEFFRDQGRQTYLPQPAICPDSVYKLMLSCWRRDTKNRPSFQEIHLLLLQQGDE

[25] = molecular target: Ephrin type-A receptor 3 (Homo sapiens, UniProt P29320); test: Inhibition of recombinant human EphA3 (578 to end residues) using poly(Glu, Tyr) 4:1 as substrate incubated for 40 mins in presence of [gamma-33ATP] by scintillation counting based radiometry assay
[26] = molecular target: Tyrosine-protein kinase Lyn (Homo sapiens, UniProt P07948); test: Inhibition of recombinant human Lyn using poly(Glu, Tyr) 4:1 as substrate after 40 mins in presence of [gamma-33ATP] by scintillation counting based radiometry assay
Sequence of Tyrosine-protein kinase Lyn (P07948 whole entry, the tested form may be a part): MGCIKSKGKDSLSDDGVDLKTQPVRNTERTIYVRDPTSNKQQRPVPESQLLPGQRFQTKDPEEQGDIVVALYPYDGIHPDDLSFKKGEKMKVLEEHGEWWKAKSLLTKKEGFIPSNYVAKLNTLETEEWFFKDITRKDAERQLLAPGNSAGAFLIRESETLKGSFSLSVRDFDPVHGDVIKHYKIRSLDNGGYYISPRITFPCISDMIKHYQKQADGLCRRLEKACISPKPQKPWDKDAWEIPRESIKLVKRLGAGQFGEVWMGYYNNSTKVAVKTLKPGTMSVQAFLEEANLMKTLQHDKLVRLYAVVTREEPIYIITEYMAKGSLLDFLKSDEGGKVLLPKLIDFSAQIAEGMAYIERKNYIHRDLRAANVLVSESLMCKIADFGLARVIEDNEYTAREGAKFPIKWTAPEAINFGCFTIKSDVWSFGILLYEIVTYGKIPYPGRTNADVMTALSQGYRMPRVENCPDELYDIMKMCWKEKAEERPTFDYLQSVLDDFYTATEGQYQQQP

[27] = molecular target: Serine/threonine-protein kinase Nek9 (Homo sapiens, UniProt Q8TD19); test: Inhibition of recombinant human NEK9 (1 to 324 residues) using myelin basic protein as substrate measured after 40 mins in presence of [gamma33P]ATP by scintillation counting based radiometry assay
[28] = molecular target: Macrophage-stimulating protein receptor (Homo sapiens, UniProt Q04912); test: Inhibition of recombinant human Ron (983 to end residues) using GGMEDIYFEFMGGKKK as substrate incubated for 40 mins in presence of [gamma33P]ATP by scintillation counting based radiometry assay
Sequence of Macrophage-stimulating protein receptor (Q04912 25-304 limits assumed): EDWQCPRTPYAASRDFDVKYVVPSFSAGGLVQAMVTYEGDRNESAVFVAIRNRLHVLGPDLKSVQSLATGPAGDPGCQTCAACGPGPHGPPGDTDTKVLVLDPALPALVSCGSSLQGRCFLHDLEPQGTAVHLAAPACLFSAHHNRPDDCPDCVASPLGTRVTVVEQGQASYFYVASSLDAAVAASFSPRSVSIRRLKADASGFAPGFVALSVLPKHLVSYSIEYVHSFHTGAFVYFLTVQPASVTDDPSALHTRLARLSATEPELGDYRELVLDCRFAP
Sequence of Macrophage-stimulating protein receptor (Q04912 310-1400 limits assumed): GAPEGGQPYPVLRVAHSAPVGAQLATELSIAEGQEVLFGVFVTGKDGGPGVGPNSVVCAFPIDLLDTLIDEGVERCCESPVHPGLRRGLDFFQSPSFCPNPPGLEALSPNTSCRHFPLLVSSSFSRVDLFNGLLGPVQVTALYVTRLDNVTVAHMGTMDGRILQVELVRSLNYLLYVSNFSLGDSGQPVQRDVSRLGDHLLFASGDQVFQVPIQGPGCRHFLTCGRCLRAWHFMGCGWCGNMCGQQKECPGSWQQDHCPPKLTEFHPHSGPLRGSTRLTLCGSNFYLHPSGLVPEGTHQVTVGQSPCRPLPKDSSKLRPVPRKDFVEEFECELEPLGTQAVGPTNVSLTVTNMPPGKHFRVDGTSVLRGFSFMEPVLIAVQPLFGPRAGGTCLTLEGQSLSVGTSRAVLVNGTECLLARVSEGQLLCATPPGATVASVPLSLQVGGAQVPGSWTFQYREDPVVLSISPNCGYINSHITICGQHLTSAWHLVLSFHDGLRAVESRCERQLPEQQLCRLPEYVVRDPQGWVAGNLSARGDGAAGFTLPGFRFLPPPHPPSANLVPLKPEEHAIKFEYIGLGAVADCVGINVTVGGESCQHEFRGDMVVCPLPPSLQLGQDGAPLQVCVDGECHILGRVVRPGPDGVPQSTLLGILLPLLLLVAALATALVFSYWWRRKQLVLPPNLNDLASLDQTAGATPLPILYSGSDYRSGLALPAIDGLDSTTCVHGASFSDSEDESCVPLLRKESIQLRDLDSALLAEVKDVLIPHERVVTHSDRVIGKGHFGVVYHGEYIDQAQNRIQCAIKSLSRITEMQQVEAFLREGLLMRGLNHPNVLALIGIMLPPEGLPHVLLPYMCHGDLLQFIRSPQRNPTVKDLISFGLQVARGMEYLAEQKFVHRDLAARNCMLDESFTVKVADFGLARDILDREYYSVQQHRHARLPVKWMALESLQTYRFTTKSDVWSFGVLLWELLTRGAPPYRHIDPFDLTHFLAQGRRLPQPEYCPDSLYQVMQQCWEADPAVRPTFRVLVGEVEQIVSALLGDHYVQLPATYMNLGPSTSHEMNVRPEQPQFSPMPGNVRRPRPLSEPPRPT

[29] = molecular target: BDNF/NT-3 growth factors receptor (Homo sapiens, UniProt Q16620); test: Inhibition of recombinant human TRKB (455 to end residues) using poly(Glu, Tyr) 4:1 as substrate incubated for 40 mins in presence of [gamma33P]ATP by scintillation counting based radiometry assay
Sequence of BDNF/NT-3 growth factors receptor (Q16620 whole entry): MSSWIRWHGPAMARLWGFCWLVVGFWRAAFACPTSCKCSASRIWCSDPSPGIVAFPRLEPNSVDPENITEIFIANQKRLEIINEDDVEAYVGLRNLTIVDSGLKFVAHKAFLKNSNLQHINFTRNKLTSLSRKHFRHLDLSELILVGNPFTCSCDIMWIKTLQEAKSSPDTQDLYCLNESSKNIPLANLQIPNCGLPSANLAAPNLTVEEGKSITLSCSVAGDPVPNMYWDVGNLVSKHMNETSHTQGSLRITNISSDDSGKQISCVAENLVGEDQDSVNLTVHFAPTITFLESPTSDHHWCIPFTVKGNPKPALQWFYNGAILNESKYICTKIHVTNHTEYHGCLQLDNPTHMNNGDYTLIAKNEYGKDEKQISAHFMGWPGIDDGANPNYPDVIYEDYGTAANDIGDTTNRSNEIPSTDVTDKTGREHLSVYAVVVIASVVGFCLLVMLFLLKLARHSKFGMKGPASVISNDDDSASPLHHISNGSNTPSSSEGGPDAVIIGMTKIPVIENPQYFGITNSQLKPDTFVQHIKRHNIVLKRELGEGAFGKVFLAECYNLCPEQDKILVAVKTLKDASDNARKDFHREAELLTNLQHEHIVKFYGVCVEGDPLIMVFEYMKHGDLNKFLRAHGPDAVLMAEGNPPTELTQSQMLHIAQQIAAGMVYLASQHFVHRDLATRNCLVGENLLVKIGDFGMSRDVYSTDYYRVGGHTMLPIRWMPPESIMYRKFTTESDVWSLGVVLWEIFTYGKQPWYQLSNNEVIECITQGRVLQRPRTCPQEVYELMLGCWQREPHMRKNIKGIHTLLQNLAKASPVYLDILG

[30] = molecular target: Mitogen-activated protein kinase kinase kinase 20 (Homo sapiens, UniProt Q9NYL2); test: Inhibition of recombinant full-length human ZAK using MBP as substrate incubated for 40 mins in presence of [gamma33P]ATP by scintillation counting based radiometry assay
[31] = molecular target: Proto-oncogene tyrosine-protein kinase receptor Ret (Homo sapiens, UniProt P07949)
[32] = organism: Mus musculus; conditions: NOD-SCID, dose 30.0 mg/kg, time 18.0 day

Compound: CC(C)(C)c1cc(NC(=O)Nc2ccc(Nc3ncnc4c3OCCCN4)cc2)no1
- Vdss [1]: 0.05 L/kg
- CL/F [2]: 0.383 mL/min/kg
- GI50 [3]: > 10000 nM
- GI50 [4]: > 10000 nM
- GI50 [5]: 7280 nM
- GI50 [6]: > 10000 nM
- GI50 [7]: > 10000 nM
- GI50 [8]: 1130 nM
- GI50 [9]: 870 nM
- GI50 [10]: 930 nM
- GI50 [11]: 100 nM
- GI50 [12]: > 10000 nM
- GI50 [13]: > 10000 nM
- inhibition (INH) [14]: 100%
- IC50 [15]: 1630 nM
- IC50 [16]: 957 nM
- IC50 [17]: 509 nM
- IC50 [18]: 199 nM
- IC50 [19]: 6 nM
- IC50 [20]: 179 nM
- IC50 [21]: 1490 nM
- IC50 [22]: 20 nM
- IC50 [23]: 708 nM
- IC50 [24]: 55 nM
- IC50 [25]: 552 nM
- IC50 [26]: 122 nM
- IC50 [27]: 1800 nM
- IC50 [28]: 1260 nM
- IC50 [29]: 68 nM
- IC50 [30]: 19 nM
- IC50 [31]: 10 nM
- inhibition [32]: Active
